Experimental data taken from patent publication US11351168B1 (Celgene CAR LLC, priority 2008, dated 2022).

Experiments:
[1] = tested on: BTK kinase activity (PLCγ2 phosphorylation) in Ramos cells; test: Washout experiment with Ramos cells; type: cell-based, human; conditions: 100 nM compound for 1 hour, then washout
Experimental: Washout Experiment with Ramos Cells
Ramos cells were serum starved for one hour in RPMI media+1% glutamine at 37° C. After starvation, Ramos cells were treated with 100 nM compound diluted in serum free RPMI media for 1 hour. After compound treatment, the media was removed and cells were washed with compound-free media. Subsequently, Ramos cells were washed every 2 hours and resuspended in fresh compound-free media. Cells were collected at specified timepoints, treated with 1 ug anti-human IgM (Southern Biotech cat #2022-01) for 10 minutes on ice to induce BCR signaling and then washed in PBS. Ramos cells were then lysed in Cell Extraction Buffer (Invitrogen FNN0011) supplemented with Roche complete protease inhibitor tablets (Roche 11697498001) and phosphatase inhibitors (Roche 04 906 837 001) and 18 ug total protein lysate was loaded in each lane. Inhibition of BTK kinase activity was assayed by measuring its substrate (PLCγ2) phosphorylation by western blot with phospho-specific antibodies from Cell Signaling Technologies cat #3871. The results of this experiment with compounds I-2, I-4 and I-7 are depicted in FIGS. 1, 2 and 3.

JAK3 kinase = JAK3 kinase (Homo sapiens (Human), UniProt P52333); test: Mass spectrometry for Janus-3 kinase (JAK3); type: binding; conditions: 3 hrs at 10× excess, tryptic digestion
Sequence of JAK3 kinase (P52333 whole entry): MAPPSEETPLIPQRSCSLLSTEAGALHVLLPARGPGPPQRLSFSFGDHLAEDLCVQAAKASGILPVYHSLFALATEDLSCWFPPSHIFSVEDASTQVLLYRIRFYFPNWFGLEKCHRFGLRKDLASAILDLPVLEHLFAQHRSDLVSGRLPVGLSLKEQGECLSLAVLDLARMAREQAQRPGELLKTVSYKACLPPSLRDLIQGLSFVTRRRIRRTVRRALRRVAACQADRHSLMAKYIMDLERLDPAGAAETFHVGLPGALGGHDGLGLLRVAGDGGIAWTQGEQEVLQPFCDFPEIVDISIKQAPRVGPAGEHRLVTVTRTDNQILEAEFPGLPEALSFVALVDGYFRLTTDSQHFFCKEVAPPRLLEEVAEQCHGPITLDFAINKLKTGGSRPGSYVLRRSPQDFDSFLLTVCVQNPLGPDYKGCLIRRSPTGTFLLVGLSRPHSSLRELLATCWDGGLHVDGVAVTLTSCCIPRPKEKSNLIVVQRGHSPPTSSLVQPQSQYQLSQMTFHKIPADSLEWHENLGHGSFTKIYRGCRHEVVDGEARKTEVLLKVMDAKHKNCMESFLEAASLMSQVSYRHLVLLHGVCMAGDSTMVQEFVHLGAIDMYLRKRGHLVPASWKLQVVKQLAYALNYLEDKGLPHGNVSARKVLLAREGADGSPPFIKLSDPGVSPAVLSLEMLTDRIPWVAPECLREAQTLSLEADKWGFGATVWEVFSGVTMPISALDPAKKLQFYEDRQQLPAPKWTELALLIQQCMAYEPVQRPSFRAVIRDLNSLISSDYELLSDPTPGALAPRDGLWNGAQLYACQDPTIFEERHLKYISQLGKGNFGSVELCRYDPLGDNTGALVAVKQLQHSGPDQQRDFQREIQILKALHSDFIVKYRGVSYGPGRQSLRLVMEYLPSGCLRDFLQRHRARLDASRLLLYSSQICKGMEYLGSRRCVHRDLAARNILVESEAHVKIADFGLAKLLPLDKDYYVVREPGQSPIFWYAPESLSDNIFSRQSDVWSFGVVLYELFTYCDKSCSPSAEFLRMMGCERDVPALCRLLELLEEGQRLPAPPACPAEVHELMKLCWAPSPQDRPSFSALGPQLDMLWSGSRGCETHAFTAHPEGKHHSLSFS
Experimental: Mass Spectrometry for Janus-3 Kinase (JAK3)
(§1) JAK3 kinase (33 pmols; Invitrogen) was incubated with (I-7) (327 pmols) for 3 hrs at 10× excess prior to tryptic digestion. Iodoacetamide was used as the alkylating agent after compound incubation. For tryptic digests a 5 ul aliquot (5.5 pmols) was diluted with 15 ul of 0.1% TFA prior to micro C18 Zip Tipping directly onto the MALDI target using alpha cyano-4-hydroxy cinnamic acid as the matrix (5 mg/ml in 0.1% TFA:Acetonitrile 50:50).
(§2) For tryptic digests the instrument was set in Reflectron mode with a pulsed extraction setting of 2200. Calibration was done using the Laser Biolabs Pep Mix standard ([…], 1296.69, 1672.92, 2093.09, 2465.20). For CID/PSD analysis the peptide was selected using cursors to set ion gate timing and fragmentation occurred at a laser power about 20% higher and He was used as the collision gas for CID. Calibration for fragments was done using the P14R fragmentation calibration for the Curved field Reflectron.

BTK in Ramos cells [2] = target: T1, BTK in Ramos cells (Homo sapiens (Human), UniProt Q06187); test: BTK occupancy from in vitro samples by ELISA (Ramos cells); type: cell-based; conditions: ELISA with probe I-215
T1 sequence (Q06187 whole entry): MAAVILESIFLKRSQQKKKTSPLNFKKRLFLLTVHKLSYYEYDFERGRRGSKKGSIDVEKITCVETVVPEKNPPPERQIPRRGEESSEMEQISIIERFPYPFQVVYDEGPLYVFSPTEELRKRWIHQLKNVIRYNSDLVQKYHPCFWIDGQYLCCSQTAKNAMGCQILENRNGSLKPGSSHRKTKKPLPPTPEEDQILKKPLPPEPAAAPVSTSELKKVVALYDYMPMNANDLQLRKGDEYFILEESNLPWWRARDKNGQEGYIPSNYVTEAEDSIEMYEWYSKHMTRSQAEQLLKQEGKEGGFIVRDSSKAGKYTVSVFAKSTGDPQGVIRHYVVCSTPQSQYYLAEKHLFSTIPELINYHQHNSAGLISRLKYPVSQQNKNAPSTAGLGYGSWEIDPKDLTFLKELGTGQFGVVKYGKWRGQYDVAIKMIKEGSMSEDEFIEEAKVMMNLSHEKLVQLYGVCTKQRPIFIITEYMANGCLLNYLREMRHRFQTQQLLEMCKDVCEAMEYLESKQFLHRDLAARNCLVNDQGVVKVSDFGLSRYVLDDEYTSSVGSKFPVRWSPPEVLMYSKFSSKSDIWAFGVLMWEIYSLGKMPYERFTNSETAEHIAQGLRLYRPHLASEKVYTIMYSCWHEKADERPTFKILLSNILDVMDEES
Description: Measuring BTK Occupancy from In Vitro Samples by ELISA
In order to determine the amount of free BTK in cell or tissue lysates, an ELISA protocol was employed that utilizes a biotinylated probe compound that binds only to free, unoccupied BTK. The conjugated biotin is captured on a streptavidin-coated ELISA plate and detected with a mouse anti-BTK antibody (Becton Dickinson, Franklin Lakes, N.J., USA) and a secondary goat anti-mouse HRP antibody (Zymed, South San Francisco, Calif., USA).
All samples were prepared with equal concentrations of Biorad lysis buffer (Hercules, Calif., USA), 0.5% bovine serum albumin in PBS with 0.05% Tween-20 to give a final concentration of 1 μM I-215. Samples were incubated in a mixing plate for 1 hr at room temperature while shaking to allow probe compound I-215 to bind to free BTK. After incubation with I-215, samples were added to a washed, streptavidin-coated ELISA plate (Pierce, Rockford, Ill., USA) and incubated for 1 hr at room temperature while shaking. The plate was then washed with PBS containing 0.05% Tween-20 using an automatic plate washer. Anti-BTK antibody was prepared at 1:1000 dilution in 0.5% BSA in PBS (0.05% Tween-20) and added to the ELISA plate. The plate was incubated for 1 hr at room temperature while shaking. The plate was washed as described above and the secondary HRP antibody was prepared at 1:5000 dilution in 0.5% BSA in PBS (0.05% Tween-20). The plate was incubated and washed as described above. TMB was added to the plate, and OD650 was monitored until reaching 1 OD unit. The reaction was then stopped with addition of H2SO4. The plate was analyzed using Gen 5 software, and a 4 Parameter Logistic curve was employed to quantitate samples. Recombinant BTK (Invitrogen, Carlsbad, Calif., USA) was used for the standard curve.
A concentration designated as “A” is greater than 1 nM; a concentration designated as “B” is greater than 10 nM; and a concentration designated as “C” is greater than 50 nM.

BTK = BTK (Homo sapiens (Human), UniProt Q06187); test: Mass spectrometry for BTK (intact protein); type: binding; conditions: 1 hr, 10× fold excess of compound
Sequence of BTK (Q06187 whole entry): as above
Experimental: Mass Spectrometry for BTK
Intact BTK was incubated for 1 hr at a 10× fold excess of I-7 to protein. Aliquots (2 μl) of the samples were diluted with 10 μl of 0.1% TFA prior to micro C4 ZipTipping directly onto the MALDI target using Sinapinic acid as the desorption matrix (10 mg/ml in 0.1% TFA:Acetonitrile 20:80).

BTK in Ramos cells [3] = target: T1, BTK in Ramos cells; test: Washout experiment with I-7 and probe compound I-215 in Ramos cells; type: cell-based; conditions: 0.1 μM, 1 hour, then washout
Experimental: Washout Experiment with I-7 and Probe Compound I-215
Ramos cells were incubated with 0.1 μM I-7 or a reversible BTK inhibitor control compound in serum free media for 1 hour at 37° C. The cells were then washed in compound-free media and lysed 0, 4, 6, or 8 hours after compound removal. Cell lysates were incubated with 1 μM I-215 for 1 hour at room temperature, then overnight at 4° C. with streptavidin-coupled agarose beads. Protein was boiled off the beads and BTK association was assessed by western blot. […] In contrast, with the reversible inhibitor control, 45% of BTK protein is unbound and available to the probe at 0 hours and by 4 hours 100% of BTK protein is unbound and available to bind the probe. All samples were normalized to the DMSO-treated cells harvested at 0 hours.

TEC kinase = TEC kinase (Homo sapiens (Human), UniProt P42680); test: Mass spectrometry for TEC kinase (tryptic digest); type: binding; conditions: 3 hrs at 10× excess, tryptic digestion
Sequence of TEC kinase (P42680 whole entry): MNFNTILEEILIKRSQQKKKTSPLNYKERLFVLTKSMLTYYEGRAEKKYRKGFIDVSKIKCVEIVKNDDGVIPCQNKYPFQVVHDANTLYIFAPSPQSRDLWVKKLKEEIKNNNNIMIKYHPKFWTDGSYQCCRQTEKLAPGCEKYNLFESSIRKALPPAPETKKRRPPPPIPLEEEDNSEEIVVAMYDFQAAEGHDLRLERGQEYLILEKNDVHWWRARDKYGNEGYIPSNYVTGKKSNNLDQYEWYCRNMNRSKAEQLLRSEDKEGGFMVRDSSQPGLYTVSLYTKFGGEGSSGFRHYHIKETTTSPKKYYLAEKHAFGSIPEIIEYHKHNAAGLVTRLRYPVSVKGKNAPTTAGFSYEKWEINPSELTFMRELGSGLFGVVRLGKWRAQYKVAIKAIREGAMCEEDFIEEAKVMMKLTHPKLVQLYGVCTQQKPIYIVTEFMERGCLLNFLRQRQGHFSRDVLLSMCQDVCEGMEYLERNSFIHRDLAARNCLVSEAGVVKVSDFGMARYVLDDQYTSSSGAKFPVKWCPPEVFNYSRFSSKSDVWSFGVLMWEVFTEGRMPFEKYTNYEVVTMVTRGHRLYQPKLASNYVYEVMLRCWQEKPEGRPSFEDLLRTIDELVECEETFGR
Experimental: Mass Spectrometry for TEC Kinase (Compound I-2)
as §1, with “TEC” for “JAK3”, “(45” for “(33”, “(I-2) (450” for “(I-7) (327”, “incubation. […]” for “incubation.”, “(7.5” for “(5.5”
as §2
as §1, with “TEC” for “JAK3”, “(45” for “(33”, “(I-4) (450” for “(I-7) (327”, “incubation. […]” for “incubation.”, “(7.5” for “(5.5”
as §2, with “1800.” for “2200.”
TEC kinase (45 pmols; Invitrogen) was incubated with […] (450 pmols) for 3 hrs at 10× excess prior to tryptic digestion. […]

[4] = tested on: BTK signaling in Ramos cells; test: BTK Ramos cellular assay (phosphorylation of BTK substrate PLCγ2); type: cell-based, human; conditions: Homo sapiens, 1 hour compound, anti-IgM stimulation, read-out: BTK Inhibition (Ramos cellular)
Procedure, shortened: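 Serum-starved Ramos Burkitt lymphoma cells treated 1 h with compound at 1, 0.1, 0.01 or 0.001 μM final. B-cell receptor stimulated with 1 μg anti-human IgM F(ab′)2, 10 min on ice. Lysates (16 μg protein) immunoblotted for phospho-PLCγ2.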

modification of JAK3 kinase by mass spectrometry (JAK3 kinase): not entirely complete
>50% occupancy (concentration) (BTK in Ramos cells [2]): A (greater than 1 nM)
>90% occupancy (concentration) (BTK in Ramos cells [2]): B (greater than 10 nM)
modification of BTK by mass spectrometry (BTK): complete modification
time BTK protein remains occupied after compound removal (BTK in Ramos cells [3]): over 8 hours
covalent modification of TEC kinase peptide GCLLNFLR by mass spectrometry (TEC kinase): reaction was complete
IC50 [4]: < 10 nM
SMILES: C=CC(=O)Nc1cccc(Nc2nc(Nc3ccccc3)ncc2C)c1 [Compound I-7, N-(3-(5-methyl-2-(phenylamino)pyrimidin-4-ylamino)phenyl) acrylamide]
BTK Inhibition Type [1]: irreversible
